Experimental data reported in patent publication US8614237B2, “Benzofuran-4,5-diones as selective peptide deformylase inhibitors” (Sloan-Kettering Institute for Cancer Research, priority 2009, dated 2013).

Tests used:
[1] = system: EcPDF
Procedure: Head of the field: EcPDF %I 10uM
(§4) Specificity profiling of the derivatives of benzofuran-4,5-diones.
Where the first naming reader finds the target: head: EcPDF %I 10uM

[2] = system: EcPDF; remark: listed apart in the source
Procedure: Head of the field: EcPDF %I 100uM
as §4
Where the first naming reader finds the target: head: EcPDF %I 100uM

[3] = system: MMP-1; experiment: MMP-1 %I 100uM
Procedure: (§1) Table printed on a drawing sheet, Figure 5
Head of the field: MMP-1 %I 100uM
(§2) Footnotes: -26 124 % inhibition
(§3) The patent's description of the figure: FIG. 5.
Where the first naming reader finds the target: head: MMP-1 %I 100uM

[4] = biological target: T1, HsPDF (Homo sapiens, UniProt Q9HBH1); experiment: HsPDF %I 10uM
T1 construct: A 63 amino acid N-terminally truncated human peptide deformylase (HsPDF); 6His (C); made in house; host or cells: E. coli BL21 (DE3), co-transformed with the GroES/EL chaperone plasmid
Procedure: as §1
Head of the field: HsPDF %I 10uM
as §2, §3
Where the first naming reader finds the target: head: HsPDF %I 10uM

[5] = system: APN; experiment: APN %I 100uM
Procedure: as §1
Head of the field: APN %I 100uM
as §2, §3
Where the first naming reader finds the target: head: APN %I 100uM

[6] = biological target: T1, HsPDF; experiment: HsPDF %I 100uM
Procedure: as §1
Head of the field: HsPDF %I 100uM
as §2, §3
Where the first naming reader finds the target: head: HsPDF %I 100uM

[7] = biological target: T2, HsPDF (Homo sapiens, UniProt Q9HBH1); experiment: FLUO functional assay (fluorescamine, substrate fMAHA); assay type: biochemical; conditions: 0.5 μM HsPDF, upper limit 10 μM compound
T2 construct: A 63 amino acid N-terminally truncated human peptide deformylase (HsPDF); 6His (C); made in house; host or cells: E. coli BL21 (DE3), co-transformed with the GroES/EL chaperone plasmid
T2 sequence (Q9HBH1 64-243 limits assumed): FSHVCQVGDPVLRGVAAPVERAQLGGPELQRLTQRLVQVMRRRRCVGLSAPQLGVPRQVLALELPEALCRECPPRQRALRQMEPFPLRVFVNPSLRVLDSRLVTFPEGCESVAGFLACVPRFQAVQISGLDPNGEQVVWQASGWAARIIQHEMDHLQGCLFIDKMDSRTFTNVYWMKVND
Procedure: High controls consisted of 1% DMSO (v/v). […] The deformylation reaction mixture was incubated for one hour at room temperature. A separate set of plates containing 3 μL of fluorescamine at 1 mg/mL in 100% DMSO was prepared for the labeling step. Then, 17 μL of the reaction mixture from the original set of plates was transferred to the plates containing the fluorescamine solution for the labeling step. The readout was performed on a Perkin Elmer VICTOR^3 V™ Multi label counter, using an excitation wavelength of 355 nm, and an emission wavelength of 460 nm. […] Compounds inducing a variation of fluorescence greater than 20% were flagged as optically active compounds.
High controls consisted of 1% DMSO (v/v). […] The deformylation reaction mixture was incubated for one hour at room temperature. A separate set of plates containing 3 μL of fluorescamine at 1 mg/mL in 100% DMSO was prepared for the labeling step. Then, 17 μL of the reaction mixture from the original set of plates was transferred to the plates containing the fluorescamine solution for the labeling step. The readout was performed on a Perkin Elmer VICTOR3 V™ Multi label counter, using an excitation wavelength of 355 nm, and an emission wavelength of 460 nm.

Row | IC50 [7] [nM] | SMILES | EcPDF %I 10uM [1] [%I] | EcPDF %I 100uM [2] [%I] | MMP-1 %I 100uM [3] [%I] | HsPDF %I 10uM [4] [%I] | APN %I 100uM [5] [%I] | HsPDF %I 100uM [6] [%I]
1 |  | COc1ccc(C(=O)c2coc3c2C(=O)C(=O)C=C3Cl)cc1 [SKC-BF-03, 7-Chloro-3-(4-methoxybenzoyl)-benzofuran-4,5-dione] | -6 |  |  |  |  | 
2 |  | COc1ccc(C(=O)c2coc3c2C(=O)C(=O)C(Cl)=C3Cl)cc1 [SKC-BF-05, 6,7-Dichloro-3-(4-methoxy-benzoyl)-benzofuran-4,5-dione] | 0 | 1 | -19 |  |  | 
3 |  | COc1ccc(C(=O)c2coc3c2C(=O)C(=O)C(Br)=C3)cc1 [SKC-BF-06, 6-Bromo-3-(4-methoxybenzoyl)-benzofuran-4,5-dione] |  |  |  | 29 |  | 
4 |  | COc1cc(C(=O)c2coc3c2C(=O)C(=O)C(Cl)=C3Cl)cc(OC)c1OC [SKC-BF-11, 6,7-Dichloro-3-(3,4,5-trimethoxy-benzoyl)-benzofuran-4,5-dione] |  | 27 | 32 |  |  | 
5 |  | O=C(c1ccccc1)c1coc2ccc(O)cc12 [SKC-BF-Int3, (5-Hydroxy-benzofuran-3-yl)-phenyl-methanone] | 7 | 7 |  |  |  | 
6 |  | O=C(c1ccccc1)c1coc2c(Cl)c(Cl)c(O)cc12 [SKC-BF-Int4, (6,7-Dichloro-5-hydroxy-benzofuran-3-yl)-phenyl-methanone] | 6 | 1 | -20 | 8 | 6 | 24
7 |  | COc1ccc(C(=O)c2coc3cc(Br)c(O)cc23)cc1 [SKC-BF-Int7A, (6-Bromo-5-hydroxy-benzofuran-3-yl)-(4-methoxyphenyl)-methanone] | -8 | -14 |  | -17 | -17 | -5
8 |  | COc1ccc(C(=O)c2coc3c(Br)cc(O)cc23)cc1 [SKC-BF-Int7B, (7-Bromo-5-hydroxy-benzofuran-3-yl)-(4-methoxyphenyl)-methanone] | 18 | 9 | -19 |  | -5 | 
9 |  | COc1ccc(C(=O)c2coc3ccc(O)c(Br)c23)cc1 [SKC-BF-Int7C, (4-Bromo-5-hydroxy-benzofuran-3-yl)-(4-methoxyphenyl)-methanone] | -4 | -4 |  | 3 | -14 | -20
10 |  | COc1ccc(C(=O)c2coc3c(Br)cc(O)c(Br)c23)cc1 [SKC-BF-Int7D, (4,7-Dibromo-5-hydroxy-benzofuran-3-yl)-(4-methoxy-phenyl)-methanone] |  | -8 |  | 0 |  | -9
11 |  | COc1ccc(C(=O)c2coc3ccc(O)cc23)cc1 [SKC-BF-Int9, (5-Hydroxy-benzofuran-3-yl)-(4-methoxyphenyl)-methanone] | 5 |  |  |  | 4 | 
12 |  | COc1ccc(C(=O)c2coc3cc(Cl)c(O)c(Cl)c23)cc1 [SKC-BF-Int10D, (4,6-Dichloro-5-hydroxy-benzofuran-3-yl)-(4-methoxyphenyl)-methanone] | 4 | 3 |  | 21 |  | 26
13 |  | COc1ccc(C(=O)c2coc3c(Cl)cc(O)c(Cl)c23)cc1 [SKC-BF-Int10E, (4,7-Dichloro-5-hydroxy-benzofuran-3-yl)-(4-methoxy-phenyl)-methanone] |  | -4 | -4 |  | -4 | 9
14 |  | COc1ccc(C(=O)c2coc3c(Cl)c(Cl)c(O)cc23)cc1 [SKC-BF-Int10F, (6,7-Dichloro-5-hydroxy-benzofuran-3-yl)-(4-methoxyphenyl)-methanone] |  |  |  | 4 | -4 | 
15 |  | COc1ccc(C(=O)c2coc3ccc(O)cc23)cc1OC [SKC-BF-Int13, (3,4-Dimethoxy-phenyl)-(5-hydroxy-benzofuran-3-yl)-methanone] | -26 | 7 | 3 | -6 |  | 8
16 |  | COc1ccc(C(=O)c2coc3c(Br)c(Br)c(O)cc23)cc1OC [SKC-BF-Int14, (6,7-Dibromo-5-hydroxy-benzofuran-3-yl)-(3,4-dimethoxy-phenyl)-methanone] | 3 | -20 | -20 | 3 | -6 | 
17 |  | COc1ccc(C(=O)c2coc3c(Cl)c(Cl)c(O)cc23)cc1OC [SKC-BF-Int16, (6,7-Dichloro-5-hydroxy-benzofuran-3-yl)-(3,4-dimethoxy-phenyl)-methanone] | 4 | -6 |  | -24 |  | -21
18 |  | COc1cc(C(=O)c2coc3ccc(O)cc23)cc(OC)c1OC [SKC-BF-Int19] |  | 7 | 19 | 4 |  | 31
19 |  | COc1cc(C(=O)c2coc3c(Br)c(Br)c(O)cc23)cc(OC)c1OC [SKC-BF-Int21, (6,7-Dibromo-5-hydroxy-benzofuran-3-yl)-(3,4,5-trimethoxy-phenyl)methanone] | 4 | 7 |  |  |  | 5
20 |  | COc1cc(C(=O)c2coc3c(Cl)c(Cl)c(O)cc23)cc(OC)c1OC [SKC-BF-Int22, (6,7-Dichloro-5-hydroxy-benzofuran-3-yl)-(3,4,5-trimethoxy-phenyl)methanone] | 4 | 2 | -14 |  | 2 | 18
21 |  | COc1ccc(C(=O)c2coc3c2C(=O)C(=O)c2ccccc2-3)cc1OC [SKC-NF-02, 3-(3,4-Dimethoxy-benzoyl)-naphtho[1,2-b]furan-4,5-dione] | 17 | 30 | 21 | 18 | 20 | 36
22 |  | COc1cc(C(=O)c2coc3c2C(=O)C(=O)c2ccccc2-3)cc(OC)c1OC [SKC-NF-03, 3-(3,4,5-Trimethoxy-benzoyl)-naphtho[1,2-b]furan-4,5-dione] | 18 | 21 | 21 | 25 |  | 
23 | 1800 | O=C1C(=O)c2c(C(=O)c3ccc(-n4ccnc4)cc3)coc2C(Br)=C1Br [SKI 417499, 3-(4-(1H-imidazol-1-yl)benzoyl)-6,7-dibromobenzofuran-4,5-dione] |  |  |  |  |  | 
24 | 2300 | O=C1C(=O)c2c(C(=O)c3ccc4c(c3)OCCO4)coc2C(Br)=C1Br [SKI 417504, 6,7-dibromo-3-(2,3-dihydrobenzo[b][1,4]dioxine-6-carbonyl)benzofuran-4,5-dione] |  |  |  |  |  | 
25 | 3400 | O=C1C(=O)c2c(C(=O)c3ccccc3)coc2C(Br)=C1Br [SKI 417508, 3-benzoyl-6,7-dibromobenzofuran-4,5-dione] |  |  |  |  |  | 
26 | 1800 | O=C1C(=O)c2c(C(=O)c3ccsc3)coc2C(Cl)=C1Cl [SKI 417512, 6,7-dichloro-3-(thiophene-3-carbonyl)benzofuran-4,5-dione] |  |  |  |  |  | 
27 | 2300 | O=C1C(=O)c2c(C(=O)c3ccc(C(=O)O)cc3)coc2C(Br)=C1Br [SKI 417518, 4-(6,7-dibromo-4,5-dioxo-4,5-dihydrobenzofuran-3-carbonyl)benzoic acid] |  |  |  |  |  | 
